Target: T1, cloned human CCR8 receptor stably expressed in L1.2 cells (Homo sapiens, UniProt P51685)
T1 construct: expressed in transfected cells
Experiment: whole cell binding screen: inhibition of biotinylated human I309 binding to CCR8 (FMAT 8100 HTS)
Conditions: Ki of compounds to inhibit I-309 binding to CCR8, L1.2/hCCR8 cells, biotinylated human I-309, 10 point concentration response starting at 10 μM
In short: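 L1.2 murine pre-B cells stably expressing human CCR8 (4.0×10^5 cells/mL) in HBSS/HEPES/fatty-acid-free BSA/azide buffer were mixed with biotinylated human I309 and compounds for 0.5 h, read by FMAT fluorescence. 10-point curves from 10 μM final; percent inhibition normalized to no-inhibitor and 100 nM unlabeled I309 controls.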

T1 sequence (P51685 whole entry): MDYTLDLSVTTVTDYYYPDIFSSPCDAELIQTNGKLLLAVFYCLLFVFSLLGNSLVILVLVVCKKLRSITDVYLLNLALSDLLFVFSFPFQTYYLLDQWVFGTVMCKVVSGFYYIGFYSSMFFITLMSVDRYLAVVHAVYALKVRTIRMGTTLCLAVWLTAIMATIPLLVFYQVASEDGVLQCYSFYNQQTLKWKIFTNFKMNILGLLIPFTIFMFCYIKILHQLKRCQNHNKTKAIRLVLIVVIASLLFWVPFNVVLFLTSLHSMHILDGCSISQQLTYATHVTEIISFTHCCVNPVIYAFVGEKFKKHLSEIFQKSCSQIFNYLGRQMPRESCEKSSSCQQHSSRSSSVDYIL

Compound	Ki [nM]
COCC(=O)N1CCC(NS(=O)(=O)c2ccc(NC(=O)c3ccccc3C)c3ccccc23)CC1 [Compound C-56, N{4-[1-(2-Methoxy-acetyl)-piperidin-4-ylsulfamoyl]-naphthalen-1-yl}-2-methyl-benzamide]	< 500
COc1ccc(NS(=O)(=O)c2ccc(N3C(=O)c4ccccc4C3=O)c3ccccc23)cc1 [Compound A-2, 4-(1,3-Dioxo-1,3-dihydro-isoindol-2-yl)-naphthalene-1-sulfonic acid (4-methoxyphenyl)-amide]	< 30000
O=C(Nc1ccc(S(=O)(=O)NCc2ccccc2)c2ccccc12)c1ccccc1 [Compound A-3, N-(4-Benzylsulfamoyl-naphthalen-1-yl)-benzamide]	< 500
Cc1ccccc1C(=O)Nc1ccc(S(=O)(=O)NC2CCN(C(=O)N3CCOCC3)CC2)c2ccccc12 [Compound C-33, 2-Methyl-N-{4-[1-(morpholine-4-carbonyl)-piperidin-4-ylsulfamoyl]-naphthalen-1-yl}-benzamide]	< 1000
CCCC(=O)N1CCC(NS(=O)(=O)c2ccc(NC(=O)C3CCCC3)c3ccccc23)CC1 [Compound D-18, Cyclopentanecarboxylic acid [4-(1-butyryl-piperidin-4-ylsulfamoyl)-naphthalen-1-yl]-amide]	< 500

Same assay, conditions: L1.2/hCCR8 cells, biotinylated human I-309, 10 point concentration response starting at 10 μM; read-out: Ki of compounds to inhibit I-309 binding to CCR8

Compound	Ki [nM]
CCOC(=O)[C@@H]1CN(Cc2ccccc2)CC[C@H]1NS(=O)(=O)c1ccc(NC(=O)c2ccccc2C)c2ccccc12 (racemic) [Compound A-48, (±)-(trans)-1-Benzyl-4-[4-(2-methyl-benzoylamino)-naphthalene-1-sulfonylamino]-piperidine-3-carboxylic acid ethyl ester]	< 30000
CCOC(=O)N1CCC(NS(=O)(=O)c2ccc(NC(=O)c3ccccc3C)c3c2CCCC3=O)CC1 [Compound J-43, 4-[4-(2-Methyl-benzoylamino)-5-oxo-5,6,7,8-tetrahydro-naphthalene-1-sulfonylamino]-piperidine-1-carboxylic acid ethyl ester]	< 1000
CCOC(=O)N1CCC(NS(=O)(=O)c2cc3c(c(NC(=O)c4ccccc4C)c2)CCCC3)CC1 [Compound H-59, 4-[4-(2-Methyl-benzoylamino)-5,6,7,8-tetrahydro-naphthalene-2-sulfonylamino]-piperidine-1-carboxylic acid ethyl ester]	< 1000
CCCC(=O)N1CCC(NS(=O)(=O)c2ccc(NC(=O)c3c(F)cccc3F)c3ccccc23)CC1 [Compound C-109, N-[4-(1-Butyryl-piperidin-4-ylsulfamoyl)-naphthalen-1-yl]-2,6-difluoro-benzamide]	< 1000
CC(C)(C)OC(=O)N1CCC(NS(=O)(=O)c2ccc(NC(=O)c3ccncc3)c3ccccc23)CC1 [Compound B-22, 4-{4-[(Pyridine-4-carbonyl)-amino]-naphthalene-1-sulfonylamino}-piperidine-1-carboxylic acid tert-butyl ester]	< 30000
CC(C)(C)OC(=O)N1CCC(NS(=O)(=O)c2ccc(NC(=O)C3CCCC3)c3ccccc23)CC1 [Compound B-16, 4-[4-(Cyclopentanecarbonyl-amino)-naphthalene-1-sulfonylamino]-piperidine-1-carboxylic acid tert-butyl ester]	< 1000
Cc1ccccc1C(=O)Nc1cc(S(=O)(=O)NC2CCN(C(=O)C(C)C)CC2)cc2c1CCCC2 [Compound H-53, N-[3-(1-Isobutyryl-piperidin-4-ylsulfamoyl)-5,6,7,8-tetrahydro-naphthalen-1-yl]-2-methyl-benzamide]	< 30000
Cc1ccccc1C(=O)Nc1ccc(S(=O)(=O)NC2CCNCC2)c2c1CCC2 [Compound H-67, 2-Methyl-N-[7-(piperidin-4-ylsulfamoyl)-indan-4-yl]-benzamide]	< 1000
CCCC(=O)N1CCC(NS(=O)(=O)c2ccc(NC(=O)c3ccccc3OC)c3ccccc23)CC1 [Compound C-104, N-[4-(1-Butyryl-piperidin-4-ylsulfamoyl)-naphthalen-1-yl]-2-methoxy-benzamide]	< 500
Cc1cccc(NC(=O)c2ccc(S(=O)(=O)NC3CCNCC3)c3ccccc23)c1C [Compound F-16, 4-(Piperidin-4-ylsulfamoyl)-naphthalene-1-carboxylic acid (2,3-dimethyl-phenyl)-amide]	< 30000
COc1ccc(NS(=O)(=O)c2ccc(NC(=S)Nc3ccccc3)c3ccccc23)cc1 [Compound B-9, 4-(3-Phenyl-thioureido)-naphthalene-1-sulfonic acid (4-methoxy-phenyl)-amide]	< 30000
Cc1ccccc1C(=O)Nc1ccc(S(=O)(=O)N[C@@H]2[C@H](C)CN(C(=O)N3CCCCC3)C[C@@H]2C)c2ccccc12 [Compound C-72, (±)-(cis,cis)-N-{4-[3,5-Dimethyl-1-(piperidine-1-carbonyl)-piperidin-4-ylsulfamoyl]-naphthalen-1-yl}-2-methyl-benzamide]	< 1000
O=C(Nc1ccc(S(=O)(=O)NC2CCNCC2)c2ccccc12)c1c(F)cccc1C(F)(F)F [Compound C-107, 2-Fluoro-N-[4-(piperidin-4-ylsulfamoyl)-naphthalen-1-yl]-6-trifluoromethyl-benzamide]	< 30000
Cc1ccccc1C(=O)Nc1ccc(S(=O)(=O)N[C@@H]2[C@H](C)CNC[C@@H]2C)c2ccccc12 [Compound C-68, (±)-(cisscis)-N-[4-(3,5-Dimethyl-piperidin-4-ylsulfamoyl)-naphthalen-1-yl]-2-methyl-benzamide]	< 30000
CCCC(=O)N1CCC(NS(=O)(=O)c2ccc(NC(=O)c3ccccc3C)c3c2CCCC3)CC1 [Compound E-1, N-[4-(1-Butyryl-piperidin-4-ylsulfamoyl)-5,6,7,8-tetrahydro-naphthalen-1-yl]-2-methyl-benzamide]	< 500

Further lines, results first:

Ki [nM]	Compound
< 500	CCc1ccc(NS(=O)(=O)c2ccc(NC(=O)c3ccccc3)c3ccccc23)cc1 [Compound A-26, N-[4-(4-Ethyl-phenylsulfamoyl)-naphthalen-1-yl]-benzamide]
< 500	Cc1ccccc1C(=O)Nc1cccc2c(S(=O)(=O)N[C@H]3CCN(C(=O)CN(C)C)C[C@H]3C)cccc12 (racemic) [Compound K-1, (±)-(cis)-N-{5-[1-(2-Dimethylamino-acetyl)-3-methyl-piperidin-4-ylsulfamoyl]-naphthalen-1-yl}-2-methyl-benzamide]
< 500	CCOC(=O)N1CCC(NS(=O)(=O)c2ccc(NC(=O)c3ccccc3C)c3c2CCCC3)CC1 [Compound E-8, 4-[4-(2-Methyl-benzoylamino)-5,6,7,8-tetrahydro-naphthalene-1-sulfonylamino]-piperidine-1-carboxylic acid ethyl ester]
< 500	COc1cccc(NS(=O)(=O)c2ccc(NC(=O)c3ccccc3)c3ccccc23)c1 [Compound A-1, N-[4-(3-Methoxy-phenylsulfamoyl)-naphthalen-1-yl]-benzamide]
< 500	COc1ccc(NS(=O)(=O)c2ccc(NC(=O)C3CCCCC3)c3ccccc23)cc1 [Compound B-4, Cyclohexanecarboxylic acid [4-(4-methoxy-phenylsulfamoyl)-naphthalen-1-yl]-amide]
< 500	CCOC(=O)N1CCC(NS(=O)(=O)c2ccc(CNCc3ccoc3)c3ccccc23)CC1 [Compound G-14, 4-(4-{[(Furan-3-ylmethyl)-amino]-methyl}-naphthalene-1-sulfonylamino)-piperidine-1-carboxylic acid ethyl ester]
< 500	CCCC(=O)N1CC[C@H](NS(=O)(=O)c2ccc(NC(=O)c3ccccc3C)c3ncccc23)[C@H](C)C1 [Compound J-41, (3R, 4S)-N-[5-(1-Butyryl-3-methyl-piperidin-4-ylsulfamoyl)-quinolin-8-yl]-2-methyl-benzamide]
< 500	Cc1ccccc1C(=O)Nc1ccc(S(=O)(=O)NC2CCOCC2)c2c1CCCC2 [Compound E-23, 2-Methyl-N-[4-(tetrahydro-pyran-4-ylsulfamoyl)-5,6,7,8-tetrahydro-naphthalen-1-yl]-benzamide]
< 500	CCOC(=O)N1CC[C@H](NS(=O)(=O)c2ccc(NC(=O)c3cccnc3C)c3ccccc23)[C@@H](C)C1 (racemic) [Compound D-9, (±)-(trans)-3-Methyl-4-{4-[(2-methyl-pyridine-3-carbonyl)-amino]-naphthalene-1-sulfonylamino}-piperidine-1-carboxylic acid ethyl ester]
< 500	CC[C@@H]1CN(C(=O)[C@@H]2CCCN2)CC[C@H]1NS(=O)(=O)c1ccc(NC(=O)c2ccccc2C)c2ccccc12 [Compound J-30, (3R, 4R)-N-{4-[3-Ethyl-1-(pyrrolidine-2-(S)-carbonyl)-piperidin-4-ylsulfamoyl]-naphthalen-1-yl}-2-methyl-benzamide]
< 500	CN(C)C(=O)N1CCC(NS(=O)(=O)c2ccc(C(=O)NC3CCCCC3)c3ccccc23)CC1 [Compound F-6, 4-(4-Cyclohexylcarbamoyl-naphthalene-1-sulfonylamino)-piperidine-1-carboxylic acid dimethylamide]
< 500	Cc1ccccc1C(=O)Nc1ccc(S(=O)(=O)N[C@@H]2CCN(Cc3ccccc3)C[C@H]2C)c2ccccc12 (racemic) [Compound A-23, (±)-trans-N-[4-(1-Benzyl-3-methyl-piperidin-4-ylsulfamoyl)-naphthalen-1-yl]-2-methyl-benzamide]
< 500	COc1ccc(NS(=O)(=O)c2ccc(NC(=O)c3ccccc3)c3c2CCCC3)cc1 [Compound E-3, N-[4-(4-Methoxy-phenylsulfamoyl)-5,6,7,8-tetrahydro-naphthalen-1-yl]-benzamide]
< 500	CCOC(=O)N1CCC(NS(=O)(=O)c2ccc(NC(=O)c3ccccc3C)c3c2CCC3)CC1 [Compound H-64, 4-[7-(2-Methyl-benzoylamino)-indane-4-sulfonylamino]-piperidine-1-carboxylic acid ethyl ester]
